Laboratory results: the supplement of paper PMC10307832

Legend:
Assay in all cases: relative viability (nuclei count vs DMSO), 5 days (fraction); higher = more cells survive
[1] = compound: N=C1NC(=O)/C(=C/c2ccc(O)cc2)S1 [Mirin] + Cc1nc(NC(=O)N2CCC[C@H]2C(N)=O)sc1-c1ccnc(C(C)(C)C(F)(F)F)c1 [Alpelisib] (partner 2 µM)
Summary of the method: (§1)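 Relative viability is defined as nuclei in treated wells over nuclei in vehicle wells. Duplicate plates were run and medians reported. Lung cancer cell lines in 1536-well plates were dosed by pin tool one day after seeding, with one drug or with a fixed anchor-drug dose plus five library-drug doses (not always all listed) in √10 steps, and nuclei were counted after 5 days.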

[2] = compound: N=C1NC(=O)/C(=C/c2ccc(O)cc2)S1 [Mirin] + COc1cccc2cc(-c3nc([C@H]4CC[C@H](C(=O)O)CC4)n4ncnc(N)c34)[nH]c12 [OSI-027] (partner 0.5 µM)
Summary of the method: as §1

[3] = compound: N=C1NC(=O)/C(=C/c2ccc(O)cc2)S1 [Mirin] + C[C@@H](Oc1cc(-c2cnn(C3CCNCC3)c2)cnc1N)c1c(Cl)ccc(F)c1Cl [Crizotinib] (partner 1 µM)
Summary of the method: as §1

[4] = compound: N=C1NC(=O)/C(=C/c2ccc(O)cc2)S1 [Mirin] + COc1cc2c(Oc3ccc(NC(=O)C4(C(=O)Nc5ccc(F)cc5)CC4)cc3F)ccnc2cc1OCCCN1CCOCC1 [Foretinib] (partner 0.25 µM)
Summary of the method: as §1

Cell Line | relative viability ([1]; first compound 0.25 µM) | relative viability ([1]; first compound 0.7906 µM) | relative viability ([1]; first compound 2.5 µM) | relative viability ([1]; first compound 25 µM) | relative viability ([2]; first compound 0.25 µM) | relative viability ([2]; first compound 0.7906 µM) | relative viability ([2]; first compound 2.5 µM) | relative viability ([2]; first compound 7.906 µM) | relative viability ([2]; first compound 25 µM) | relative viability ([3]; first compound 0.25 µM) | relative viability ([3]; first compound 0.7906 µM) | relative viability ([3]; first compound 2.5 µM) | relative viability ([3]; first compound 25 µM) | relative viability ([4]; first compound 0.25 µM) | relative viability ([4]; first compound 0.7906 µM) | relative viability ([4]; first compound 2.5 µM) | relative viability ([4]; first compound 7.906 µM) | relative viability ([4]; first compound 25 µM) | relative viability ([1]; first compound 7.906 µM) | relative viability ([3]; first compound 7.906 µM)
HOP-62 | 0.969 | 1.02 | 1.13 | 0.939 | 0.836 | 0.787 | 0.846 | 0.663 | 0.688 | 1.05 | 0.815 | 0.828 | 0.937 | 1.17 | 1.24 | 1.11 | 1.1 | 1.21 |  | 
LC-2-ad | 0.865 | 0.926 | 0.98 | 0.726 | 0.851 | 0.776 | 0.822 | 0.567 | 0.492 | 0.493 | 0.518 | 0.466 | 0.254 | 0.97 | 1 | 0.988 | 0.907 | 0.759 | 0.821 | 
LCLC-97TM1 | 0.253 | 0.31 | 0.197 | 0.129 | 0.455 | 0.263 | 0.341 | 0.291 | 0.292 | 0.316 | 0.317 | 0.259 | 0.233 | 0.762 | 0.848 | 0.89 | 0.991 | 0.703 | 0.18 | 0.218
LCLC-103H | 0.917 | 1.02 | 0.908 | 1.1 | 0.444 | 0.495 | 0.515 | 0.509 | 0.442 | 1.1 | 0.978 | 1.01 | 1.25 | 0.909 | 0.825 | 0.839 | 0.955 | 0.8 | 1.05 | 1.17
LK-2 | 0.899 |  | 1.1 | 0.397 | 0.195 | 0.154 | 0.198 | 0.138 | 0.146 | 0.241 |  | 0.238 | 0.199 | 1.24 |  | 1.02 | 0.977 | 0.586 | 0.743 | 0.24
LOU-NH91 | 0.726 |  | 0.728 | 0.747 | 0.737 | 0.769 | 0.751 | 0.731 | 0.832 | 0.759 |  | 0.718 | 0.902 | 0.937 | 0.987 | 0.935 | 0.93 | 1.16 | 0.65 | 0.77
LU99A | 0.541 | 0.518 | 0.498 | 0.352 | 0.284 | 0.288 | 0.299 | 0.288 | 0.278 | 0.526 | 0.463 | 0.499 | 0.37 | 0.71 | 0.631 | 0.795 | 0.71 | 0.566 | 0.376 | 0.499
LXF-289 | 1.03 | 1.05 | 1.06 | 1.03 | 0.79 | 0.701 | 0.764 | 0.715 | 0.763 | 0.808 | 0.87 | 0.787 | 0.945 | 1.04 | 1.03 | 0.939 | 1.09 | 1.01 | 1.13 | 0.899
NCI-H23 | 0.655 |  | 0.723 | 0.442 | 0.725 |  | 0.544 | 0.443 | 0.589 | 0.403 |  | 0.469 | 0.337 | 0.8 |  | 1.13 | 0.891 | 0.773 | 0.642 | 0.451
